Experimental data: patent US9340590B2 (priority 2011, dated 2016)
Where two headings read alike, the source gives them in different places. Positions of bridges follow the written chain, without caps; N, C: chain ends. Non-standard residues stand in square brackets, D forms with d. Residues, ends and D or L forms follow the SMILES beside them. Bip = N[C@@H](Cc1ccc(-c2ccccc2)cc1)C(=O)O; Arg(Me2s) = CN=C(NC)NCCC[C@H](N)C(=O)O; Phe(4-I) = N[C@@H](Cc1ccc(I)cc1)C(=O)O; Lys(Me2) = CN(C)CCCC[C@H](N)C(=O)O; NMeF = CN[C@@H](Cc1ccccc1)C(=O)O; 2Pal = N[C@@H](Cc1ccccn1)C(=O)O; Phg = N[C@H](C(=O)O)c1ccccc1

Columns and labels:
Assay in all cases: cell-based
[1] = target: hNav1.7 (Homo sapiens, UniProt Q15858); type: cell-based; conditions: IonWorks Quattro, use, […], read-out: IWQ Use Nav1.7
[2] = target: hNav1.3 (Homo sapiens, UniProt Q9NY46); conditions: IonWorks Quattro, use, […], read-out: IWQ Use Nav1.3
hNav1.3, sequence (Q9NY46 whole entry, looked up): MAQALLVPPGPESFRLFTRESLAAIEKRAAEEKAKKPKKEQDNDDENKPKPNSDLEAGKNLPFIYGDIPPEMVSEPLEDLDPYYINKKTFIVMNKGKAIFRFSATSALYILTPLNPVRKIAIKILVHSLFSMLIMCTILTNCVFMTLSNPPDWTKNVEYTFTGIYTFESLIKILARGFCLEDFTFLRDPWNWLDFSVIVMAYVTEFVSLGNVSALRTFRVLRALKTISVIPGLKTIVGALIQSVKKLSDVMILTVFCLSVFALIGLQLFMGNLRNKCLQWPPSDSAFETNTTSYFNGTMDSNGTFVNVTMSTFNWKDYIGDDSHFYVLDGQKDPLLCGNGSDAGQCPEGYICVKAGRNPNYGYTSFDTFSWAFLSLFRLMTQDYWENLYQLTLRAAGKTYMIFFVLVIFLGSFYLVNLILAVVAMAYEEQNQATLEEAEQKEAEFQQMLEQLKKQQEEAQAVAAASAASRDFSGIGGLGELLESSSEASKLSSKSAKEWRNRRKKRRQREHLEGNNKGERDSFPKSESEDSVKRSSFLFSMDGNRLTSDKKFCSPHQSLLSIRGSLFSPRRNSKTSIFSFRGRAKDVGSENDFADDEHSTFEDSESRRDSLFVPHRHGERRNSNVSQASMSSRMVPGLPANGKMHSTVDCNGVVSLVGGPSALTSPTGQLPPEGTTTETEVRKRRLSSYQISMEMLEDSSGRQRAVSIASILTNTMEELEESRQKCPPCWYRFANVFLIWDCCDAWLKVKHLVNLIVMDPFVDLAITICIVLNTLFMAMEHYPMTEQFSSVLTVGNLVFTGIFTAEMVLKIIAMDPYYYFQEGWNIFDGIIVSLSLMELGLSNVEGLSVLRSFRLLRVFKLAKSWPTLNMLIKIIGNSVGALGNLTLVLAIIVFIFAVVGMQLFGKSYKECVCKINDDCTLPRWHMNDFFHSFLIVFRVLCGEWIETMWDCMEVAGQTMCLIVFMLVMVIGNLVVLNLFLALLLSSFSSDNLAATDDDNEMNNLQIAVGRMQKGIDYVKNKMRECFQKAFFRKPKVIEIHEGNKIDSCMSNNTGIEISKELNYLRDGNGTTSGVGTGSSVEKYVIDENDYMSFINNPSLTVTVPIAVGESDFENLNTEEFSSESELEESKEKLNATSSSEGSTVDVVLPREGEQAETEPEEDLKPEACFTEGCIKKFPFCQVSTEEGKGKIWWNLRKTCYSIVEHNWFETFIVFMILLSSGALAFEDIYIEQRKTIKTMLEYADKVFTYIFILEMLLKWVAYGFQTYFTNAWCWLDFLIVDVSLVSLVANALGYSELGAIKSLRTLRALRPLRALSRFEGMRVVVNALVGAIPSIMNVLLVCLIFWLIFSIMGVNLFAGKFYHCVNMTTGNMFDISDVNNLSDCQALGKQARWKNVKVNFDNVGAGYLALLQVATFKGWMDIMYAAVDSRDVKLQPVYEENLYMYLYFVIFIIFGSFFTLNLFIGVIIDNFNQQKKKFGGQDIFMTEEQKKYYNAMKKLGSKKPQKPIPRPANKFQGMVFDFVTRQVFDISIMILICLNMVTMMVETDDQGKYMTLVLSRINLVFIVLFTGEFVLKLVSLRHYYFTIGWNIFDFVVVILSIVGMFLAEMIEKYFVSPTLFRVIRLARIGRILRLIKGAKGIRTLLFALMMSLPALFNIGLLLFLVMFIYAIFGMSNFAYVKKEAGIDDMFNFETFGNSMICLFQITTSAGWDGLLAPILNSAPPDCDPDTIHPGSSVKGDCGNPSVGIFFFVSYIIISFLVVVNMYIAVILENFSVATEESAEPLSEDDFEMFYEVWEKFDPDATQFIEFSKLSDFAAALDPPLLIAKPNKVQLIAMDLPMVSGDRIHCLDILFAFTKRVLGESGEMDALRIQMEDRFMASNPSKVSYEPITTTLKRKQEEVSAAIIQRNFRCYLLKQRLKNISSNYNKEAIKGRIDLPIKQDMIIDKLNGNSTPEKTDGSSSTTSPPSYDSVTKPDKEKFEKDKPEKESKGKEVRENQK

[3] = target: hNav1.5 (Homo sapiens, UniProt Q14524); conditions: IonWorks Quattro, use, […], read-out: IWQ Use Nav1.5
hNav1.5, sequence (Q14524 whole entry, looked up): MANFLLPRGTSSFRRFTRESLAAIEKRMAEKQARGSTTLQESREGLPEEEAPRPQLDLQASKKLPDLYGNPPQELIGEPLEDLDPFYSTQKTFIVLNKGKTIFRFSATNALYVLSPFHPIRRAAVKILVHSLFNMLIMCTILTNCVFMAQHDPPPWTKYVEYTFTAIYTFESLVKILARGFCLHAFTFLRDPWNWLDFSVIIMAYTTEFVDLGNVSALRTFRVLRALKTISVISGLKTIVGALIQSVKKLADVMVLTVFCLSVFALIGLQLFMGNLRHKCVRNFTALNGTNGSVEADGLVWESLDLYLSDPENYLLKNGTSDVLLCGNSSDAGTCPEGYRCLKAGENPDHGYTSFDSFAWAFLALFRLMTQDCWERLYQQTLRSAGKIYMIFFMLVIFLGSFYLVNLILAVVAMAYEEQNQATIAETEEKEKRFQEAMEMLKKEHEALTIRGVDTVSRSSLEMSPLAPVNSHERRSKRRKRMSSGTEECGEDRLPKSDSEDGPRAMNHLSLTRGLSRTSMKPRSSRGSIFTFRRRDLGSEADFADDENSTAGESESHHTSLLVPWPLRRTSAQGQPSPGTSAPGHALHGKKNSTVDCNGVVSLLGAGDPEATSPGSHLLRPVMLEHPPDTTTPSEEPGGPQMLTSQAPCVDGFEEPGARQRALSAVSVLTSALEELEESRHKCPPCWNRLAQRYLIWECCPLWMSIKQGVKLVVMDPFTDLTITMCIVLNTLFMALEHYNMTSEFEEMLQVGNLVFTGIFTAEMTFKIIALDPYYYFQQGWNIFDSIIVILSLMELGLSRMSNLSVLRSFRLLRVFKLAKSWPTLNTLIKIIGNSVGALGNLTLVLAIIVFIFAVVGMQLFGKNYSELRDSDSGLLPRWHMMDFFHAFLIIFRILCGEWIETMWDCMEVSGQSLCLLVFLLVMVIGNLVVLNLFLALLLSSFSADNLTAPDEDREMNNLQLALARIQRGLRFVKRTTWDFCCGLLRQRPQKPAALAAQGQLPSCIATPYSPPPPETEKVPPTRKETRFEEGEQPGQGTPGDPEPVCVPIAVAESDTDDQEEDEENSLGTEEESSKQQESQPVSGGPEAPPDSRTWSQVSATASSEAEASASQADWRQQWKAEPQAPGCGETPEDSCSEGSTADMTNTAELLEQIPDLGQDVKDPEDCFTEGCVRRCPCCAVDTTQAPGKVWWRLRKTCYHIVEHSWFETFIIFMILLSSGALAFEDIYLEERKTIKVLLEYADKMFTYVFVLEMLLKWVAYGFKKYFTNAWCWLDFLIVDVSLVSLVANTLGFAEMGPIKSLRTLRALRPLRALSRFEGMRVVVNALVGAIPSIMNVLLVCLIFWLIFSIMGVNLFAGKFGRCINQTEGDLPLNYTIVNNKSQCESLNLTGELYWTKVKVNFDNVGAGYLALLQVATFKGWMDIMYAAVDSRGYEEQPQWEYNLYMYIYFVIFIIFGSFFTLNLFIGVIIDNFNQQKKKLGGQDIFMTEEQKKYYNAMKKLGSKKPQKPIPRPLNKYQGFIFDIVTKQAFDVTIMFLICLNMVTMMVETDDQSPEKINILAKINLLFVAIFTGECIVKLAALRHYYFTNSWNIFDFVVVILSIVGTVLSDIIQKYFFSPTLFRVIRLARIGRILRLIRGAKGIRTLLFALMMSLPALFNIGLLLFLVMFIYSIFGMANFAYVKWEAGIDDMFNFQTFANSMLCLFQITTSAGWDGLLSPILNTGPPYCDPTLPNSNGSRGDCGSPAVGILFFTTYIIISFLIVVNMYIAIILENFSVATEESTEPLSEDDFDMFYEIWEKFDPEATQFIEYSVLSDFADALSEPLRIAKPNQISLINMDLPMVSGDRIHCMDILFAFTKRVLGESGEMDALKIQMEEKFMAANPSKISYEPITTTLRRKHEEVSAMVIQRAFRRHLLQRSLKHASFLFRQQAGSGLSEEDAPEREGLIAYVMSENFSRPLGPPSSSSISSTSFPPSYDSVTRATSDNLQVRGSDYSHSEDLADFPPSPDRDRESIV

Compound	IC50 ([1]; Table 23)	IC50 ([2]; Table 23)	IC50 ([3]; Table 23)	IC50 ([1]; Table 24)	IC50 ([2]; Table 24)	IC50 ([3]; Table 24)
CC[C@H](C)[C@@H]1NC(=O)[C@@H]2CSSC[C@@H]3NC(=O)[C@H](C(C)C)NC(=O)[C@H](CC(C)C)NC(=O)[C@H](CC(N)=O)NC(=O)[C@@H]4CCCN4C(=O)[C@H](CCCNC(=N)N)NC(=O)[C@H](CSSC[C@H](NC(=O)[C@@H](N)CC(=O)O)C(=O)N[C@@H](CC(C)C)C(=O)NCC(=O)N[C@@H](Cc4ccccc4)C(=O)N[C@@H](CCSC)C(=O)N[C@@H](CCCNC(=N)N)C(=O)N[C@@H](CCCCN)C(=O)N2)NC(=O)[C@H](CSSC[C@@H](C(=O)N[C@@H](CCCCN)C(=O)N[C@@H](Cc2ccc(O)cc2)C(=O)N[C@H](C(=O)N[C@@H](Cc2ccccc2)C(N)=O)C(C)C)NC(=O)[C@H](Cc2c[nH]c4ccccc24)NC(=O)[C@H](CCCCN)NC(=O)[C@H](Cc2ccccn2)NC(=O)[C@H]([C@@H](C)O)NC(=O)[C@H](CCCNC(=N)N)NC(=O)[C@H](CO)NC3=O)NC(=O)[C@H](CCCCN)NC(=O)[C@H](CC(=O)O)NC(=O)[C@H](CC(N)=O)NC(=O)[C@H](CC(=O)O)NC(=O)[C@@H]2CCCN2C1=O [compound 352] (H-DCLGFMRKCIPDNDKCCRPNLVCSRT[2Pal]KWCKYVF-NH2; disulfide 2-17, 9-23, 16-30)	0.09 µM	0.05 µM	7.82 µM			
CC[C@H](C)[C@@H]1NC(=O)[C@@H]2CSSC[C@@H]3NC(=O)[C@H](C(C)C)NC(=O)[C@H](CC(C)C)NC(=O)[C@H](CC(N)=O)NC(=O)[C@@H]4CCCN4C(=O)[C@H](CCCNC(=N)N)NC(=O)[C@H](CSSC[C@H](NC(=O)[C@@H](N)CC(=O)O)C(=O)N[C@@H](CC(C)C)C(=O)NCC(=O)N[C@@H](Cc4ccccc4)C(=O)N[C@@H](CCSC)C(=O)N[C@@H](CCCNC(=N)N)C(=O)N[C@@H](CCCCN)C(=O)N2)NC(=O)[C@H](CSSC[C@@H](C(=O)N[C@@H](CCCCN)C(=O)N[C@@H](Cc2ccc(O)cc2)C(=O)N[C@H](C(=O)N[C@@H](Cc2ccccc2)C(N)=O)C(C)C)NC(=O)[C@H](Cc2c[nH]c4ccccc24)NC(=O)[C@H](CCCCN)NC(=O)[C@H](CCCNC(=NC)NC)NC(=O)[C@H]([C@@H](C)O)NC(=O)[C@H](CCCNC(=N)N)NC(=O)[C@H](CO)NC3=O)NC(=O)[C@H](CCCCN)NC(=O)[C@H](CC(=O)O)NC(=O)[C@H](CC(N)=O)NC(=O)[C@H](CC(=O)O)NC(=O)[C@@H]2CCCN2C1=O [compound 353] (H-DCLGFMRKCIPDNDKCCRPNLVCSRT[Arg(Me2s)]KWCKYVF-NH2; disulfide 2-17, 9-23, 16-30)	2 µM	2.42 µM	8.32 µM			
CC[C@H](C)[C@@H]1NC(=O)[C@@H]2CSSC[C@@H]3NC(=O)[C@H](C(C)C)NC(=O)[C@H](CC(C)C)NC(=O)[C@H](CC(N)=O)NC(=O)[C@@H]4CCCN4C(=O)[C@H](CCCNC(=N)N)NC(=O)[C@H](CSSC[C@H](NC(=O)[C@@H](N)CC(=O)O)C(=O)N[C@@H](CC(C)C)C(=O)NCC(=O)N[C@@H](Cc4ccccc4)C(=O)N[C@@H](CCSC)C(=O)N[C@@H](CCCNC(=N)N)C(=O)N[C@@H](CCCCN)C(=O)N2)NC(=O)[C@H](CSSC[C@@H](C(=O)N[C@@H](CCCCN)C(=O)N[C@@H](Cc2ccc(O)cc2)C(=O)N[C@H](C(=O)N[C@@H](Cc2ccccc2)C(N)=O)C(C)C)NC(=O)[C@H](Cc2c[nH]c4ccccc24)NC(=O)[C@H](CCCCN)NC(=O)[C@H](CCCCN(C)C)NC(=O)[C@H]([C@@H](C)O)NC(=O)[C@H](CCCNC(=N)N)NC(=O)[C@H](CO)NC3=O)NC(=O)[C@H](CCCCN)NC(=O)[C@H](CC(=O)O)NC(=O)[C@H](CC(N)=O)NC(=O)[C@H](CC(=O)O)NC(=O)[C@@H]2CCCN2C1=O [compound 354] (H-DCLGFMRKCIPDNDKCCRPNLVCSRT[Lys(Me2)]KWCKYVF-NH2; disulfide 2-17, 9-23, 16-30)	7 µM	3.82 µM	12.4 µM			
CC[C@H](C)[C@@H]1NC(=O)[C@@H]2CSSC[C@@H]3NC(=O)[C@H](C(C)C)NC(=O)[C@H](CC(C)C)NC(=O)[C@H](CC(N)=O)NC(=O)[C@@H]4CCCN4C(=O)[C@H](CCCNC(=N)N)NC(=O)[C@H](CSSC[C@H](NC(=O)[C@@H](N)CC(=O)O)C(=O)N[C@@H](CC(C)C)C(=O)NCC(=O)N[C@@H](Cc4ccccc4)C(=O)N[C@@H](CCSC)C(=O)N[C@@H](CCCNC(=N)N)C(=O)N[C@@H](CCCCN)C(=O)N2)NC(=O)[C@H](CSSC[C@@H](C(=O)N[C@@H](CCCCN)C(=O)N[C@@H](Cc2ccc(O)cc2)C(=O)N[C@H](C(=O)N[C@@H](Cc2ccccc2)C(N)=O)C(C)C)NC(=O)[C@H](Cc2ccc(I)cc2)NC(=O)[C@H](CCCCN)NC(=O)[C@H](Cc2c[nH]cn2)NC(=O)[C@H]([C@@H](C)O)NC(=O)[C@H](CCCNC(=N)N)NC(=O)[C@H](CO)NC3=O)NC(=O)[C@H](CCCCN)NC(=O)[C@H](CC(=O)O)NC(=O)[C@H](CC(N)=O)NC(=O)[C@H](CC(=O)O)NC(=O)[C@@H]2CCCN2C1=O [compound 358] (H-DCLGFMRKCIPDNDKCCRPNLVCSRTHK[Phe(4-I)]CKYVF-NH2; disulfide 2-17, 9-23, 16-30)				1.01 µM	1.27 µM	14.9 µM
CC[C@H](C)[C@@H]1NC(=O)[C@@H]2CSSC[C@@H]3NC(=O)[C@H](C(C)C)NC(=O)[C@H](CC(C)C)NC(=O)[C@H](CC(N)=O)NC(=O)[C@@H]4CCCN4C(=O)[C@H](CCCNC(=N)N)NC(=O)[C@H](CSSC[C@H](NC(=O)[C@@H](N)CC(=O)O)C(=O)N[C@@H](CC(C)C)C(=O)NCC(=O)N[C@@H](Cc4ccccc4)C(=O)N[C@@H](CCSC)C(=O)N[C@@H](CCCNC(=N)N)C(=O)N[C@@H](CCCCN)C(=O)N2)NC(=O)[C@H](CSSC[C@@H](C(=O)N[C@@H](CCCCN)C(=O)N[C@@H](Cc2ccc(O)cc2)C(=O)N[C@H](C(=O)N[C@@H](Cc2ccccc2)C(N)=O)C(C)C)NC(=O)[C@H](Cc2ccccc2)N(C)C(=O)[C@H](CCCCN)NC(=O)[C@H](Cc2c[nH]cn2)NC(=O)[C@H]([C@@H](C)O)NC(=O)[C@H](CCCNC(=N)N)NC(=O)[C@H](CO)NC3=O)NC(=O)[C@H](CCCCN)NC(=O)[C@H](CC(=O)O)NC(=O)[C@H](CC(N)=O)NC(=O)[C@H](CC(=O)O)NC(=O)[C@@H]2CCCN2C1=O [compound 359] (H-DCLGFMRKCIPDNDKCCRPNLVCSRTHK[NMeF]CKYVF-NH2; disulfide 2-17, 9-23, 16-30)				19.2 µM	7.39 µM	18.8 µM
CC[C@H](C)[C@@H]1NC(=O)[C@@H]2CSSC[C@@H]3NC(=O)[C@H](C(C)C)NC(=O)[C@H](CC(C)C)NC(=O)[C@H](CC(N)=O)NC(=O)[C@@H]4CCCN4C(=O)[C@H](CCCNC(=N)N)NC(=O)[C@H](CSSC[C@H](NC(=O)[C@@H](N)CC(=O)O)C(=O)N[C@@H](CC(C)C)C(=O)NCC(=O)N[C@@H](Cc4ccccc4)C(=O)N[C@@H](CCSC)C(=O)N[C@@H](CCCNC(=N)N)C(=O)N[C@@H](CCCCN)C(=O)N2)NC(=O)[C@H](CSSC[C@@H](C(=O)N[C@@H](CCCCN)C(=O)N[C@@H](Cc2ccc(O)cc2)C(=O)N[C@H](C(=O)N[C@@H](Cc2ccccc2)C(N)=O)C(C)C)NC(=O)[C@H](Cc2ccc(-c4ccccc4)cc2)NC(=O)[C@H](CCCCN)NC(=O)[C@H](Cc2c[nH]cn2)NC(=O)[C@H]([C@@H](C)O)NC(=O)[C@H](CCCNC(=N)N)NC(=O)[C@H](CO)NC3=O)NC(=O)[C@H](CCCCN)NC(=O)[C@H](CC(=O)O)NC(=O)[C@H](CC(N)=O)NC(=O)[C@H](CC(=O)O)NC(=O)[C@@H]2CCCN2C1=O [compound 360] (H-DCLGFMRKCIPDNDKCCRPNLVCSRTHK[Bip]CKYVF-NH2; disulfide 2-17, 9-23, 16-30)				4.79 µM	6.95 µM	9.77 µM
CC[C@H](C)[C@@H]1NC(=O)[C@@H]2CSSC[C@@H]3NC(=O)[C@H](C(C)C)NC(=O)[C@H](CC(C)C)NC(=O)[C@H](CC(N)=O)NC(=O)[C@@H]4CCCN4C(=O)[C@H](CCCNC(=N)N)NC(=O)[C@H](CSSC[C@H](NC(=O)[C@@H](N)CC(=O)O)C(=O)N[C@@H](CC(C)C)C(=O)NCC(=O)N[C@@H](Cc4ccccc4)C(=O)N[C@@H](CCSC)C(=O)N[C@@H](CCCNC(=N)N)C(=O)N[C@@H](CCCCN)C(=O)N2)NC(=O)[C@H](CSSC[C@@H](C(=O)N[C@@H](CCCCN)C(=O)N[C@@H](Cc2ccc(O)cc2)C(=O)N[C@H](C(=O)N[C@@H](Cc2ccccc2)C(N)=O)C(C)C)NC(=O)[C@H](Cc2cn(C)c4ccccc24)NC(=O)[C@H](CCCCN)NC(=O)[C@H](Cc2c[nH]cn2)NC(=O)[C@H]([C@@H](C)O)NC(=O)[C@H](CCCNC(=N)N)NC(=O)[C@H](CO)NC3=O)NC(=O)[C@H](CCCCN)NC(=O)[C@H](CC(=O)O)NC(=O)[C@H](CC(N)=O)NC(=O)[C@H](CC(=O)O)NC(=O)[C@@H]2CCCN2C1=O [compound 361]				3.89 µM	4.58 µM	12.2 µM
CC[C@H](C)[C@@H]1NC(=O)[C@@H]2CSSC[C@@H]3NC(=O)[C@H](C(C)C)NC(=O)[C@H](CC(C)C)NC(=O)[C@H](CC(N)=O)NC(=O)[C@@H]4CCCN4C(=O)[C@H](CCCNC(=N)N)NC(=O)[C@H](CSSC[C@H](NC(=O)[C@@H](N)CC(=O)O)C(=O)N[C@@H](CC(C)C)C(=O)NCC(=O)N[C@@H](Cc4ccccc4)C(=O)N[C@@H](CCSC)C(=O)N[C@@H](CCCNC(=N)N)C(=O)N[C@@H](CCCCN)C(=O)N2)NC(=O)[C@H](CSSC[C@@H](C(=O)N[C@@H](CCCCN)C(=O)N[C@@H](Cc2ccc(O)cc2)C(=O)N[C@H](C(=O)N[C@@H](Cc2ccccc2)C(N)=O)C(C)C)NC(=O)[C@H](c2ccccc2)NC(=O)[C@H](CCCCN)NC(=O)[C@H](Cc2c[nH]cn2)NC(=O)[C@H]([C@@H](C)O)NC(=O)[C@H](CCCNC(=N)N)NC(=O)[C@H](CO)NC3=O)NC(=O)[C@H](CCCCN)NC(=O)[C@H](CC(=O)O)NC(=O)[C@H](CC(N)=O)NC(=O)[C@H](CC(=O)O)NC(=O)[C@@H]2CCCN2C1=O [compound 362] (H-DCLGFMRKCIPDNDKCCRPNLVCSRTHK[Phg]CKYVF-NH2; disulfide 2-17, 9-23, 16-30)				5.52 µM	3.18 µM	7.85 µM
